According to patent publication US20170065663A1, “SUBSTANCE AND METHOD FOR TREATING INFLUENZA” (priority 2014, published 2017):
Where two headings read alike, the source gives them in different places.

Key:
ECE-1 = target: T1, ECE-1 (Homo sapiens, UniProt P42892); conditions: cited from earlier work; for peptide present that is degraded: within 100 minutes of incubation
T1 sequence (P42892 1-770): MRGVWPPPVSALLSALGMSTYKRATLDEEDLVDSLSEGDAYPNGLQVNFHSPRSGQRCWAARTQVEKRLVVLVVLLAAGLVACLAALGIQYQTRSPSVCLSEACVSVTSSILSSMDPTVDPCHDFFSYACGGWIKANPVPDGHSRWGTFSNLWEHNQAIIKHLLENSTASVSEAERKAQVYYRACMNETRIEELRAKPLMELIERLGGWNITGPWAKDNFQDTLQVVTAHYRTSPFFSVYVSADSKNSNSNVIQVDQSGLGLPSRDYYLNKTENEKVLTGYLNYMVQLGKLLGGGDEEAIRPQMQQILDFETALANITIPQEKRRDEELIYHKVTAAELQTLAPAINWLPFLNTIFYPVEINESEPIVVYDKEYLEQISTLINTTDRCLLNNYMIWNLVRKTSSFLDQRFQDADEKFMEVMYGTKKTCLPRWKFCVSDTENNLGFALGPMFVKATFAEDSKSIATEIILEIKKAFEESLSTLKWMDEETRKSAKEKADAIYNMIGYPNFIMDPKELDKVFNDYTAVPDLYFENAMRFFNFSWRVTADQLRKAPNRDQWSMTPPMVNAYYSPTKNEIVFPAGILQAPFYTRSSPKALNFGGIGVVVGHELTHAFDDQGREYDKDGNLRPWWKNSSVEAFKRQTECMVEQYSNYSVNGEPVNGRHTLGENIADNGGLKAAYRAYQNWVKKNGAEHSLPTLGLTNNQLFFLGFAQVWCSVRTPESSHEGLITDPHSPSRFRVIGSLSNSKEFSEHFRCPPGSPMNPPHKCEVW

[1] = Example I: degradation in IMDM media with 2.5% fetal bovine serum
[2] = Example II: degradation of further Substance P analogs in IMDM media with 2.5% fetal bovine serum; conditions: 72 hours, present tense
[3] = system: influenza virus subtypes H1N1, H3N2, H5N1 and H7N9; set-up: species or system mice, cotton rats and ferrets; conditions: in vivo
[4] = system: influenza virus subtypes H1N1, H3N2, H5N1 and H7N9; set-up: species or system mice, cotton rats and ferrets; conditions: in vivo; remark: listed apart in the source
Influenza/A/Wuhan/359/95 [5] = system: Influenza/A/Wuhan/359/95; set-up: species or system cotton rats (Sigmodon Hispidus); conditions: rat, in vivo
Influenza/A/Wuhan/359/95 [6] = system: Influenza/A/Wuhan/359/95; set-up: species or system cotton rats (Sigmodon Hispidus); conditions: rat, in vivo; remark: listed apart in the source

Row | Compound | additional degradation after long incubation (ECE-1; 195 nM ECE-1, 1200 minutes post-incubation) | time for 50% of the peptide present to become degraded (ECE-1; 195 nM ECE-1) | peptide present that is degraded (ECE-1; 195 nM ECE-1) | remaining at 72 h [1] | initial concentration recovered [2] | flu-related symptoms compared with placebo [3] | flu-related symptoms compared with placebo [4] | symptom reduction compared with subjects treated with an enumerated Substance P analog [4] | body weight change following infection (Influenza/A/Wuhan/359/95 [5]) | body weight loss (Influenza/A/Wuhan/359/95 [6]) | pulmonary inflammation (alveolitis and interstitial inflammation) (Influenza/A/Wuhan/359/95 [6])
1 | CC(C)C[C@H](NC(=O)CN(C)C(=O)[C@H](Cc1ccccc1)NC(=O)[C@H](Cc1ccccc1)NC(=O)[C@H](CCC(N)=O)NC(=O)[C@H](CCC(N)=O)NC(=O)[C@@H]1CCCN1C(=O)[C@H](CCCCN)NC(=O)[C@@H]1CCCN1C(=O)[C@@H](N)CCCNC(=N)N)C(=O)N[C@@H](CCS(C)(=O)=O)C(N)=O | no additional degradation occurs | ~300 min | about 20% | 59% |  |  |  |  |  |  | 
2 | CSCC[C@H](NC(=O)[C@H](CC(C)C)NC(=O)CNC(=O)[C@H](Cc1ccccc1)NC(=O)[C@H](Cc1ccccc1)NC(=O)[C@H](CCC(N)=O)NC(=O)[C@H](CCC(N)=O)NC(=O)[C@@H]1CCCN1C(=O)[C@H](CCCCN)NC(=O)[C@@H]1CCCN1C(=O)[C@@H](N)CCCN=C(N)N)C(N)=O [Substance P] |  |  | ~100% | 24% | 24% |  |  |  |  |  | 
3 | CCOC(=O)C1=C[C@@H](OC(CC)CC)[C@H](NC(C)=O)[C@@H](N)C1 [Tamiflu®, oseltamivir] |  |  |  |  |  | fewer flu-related symptoms | fewer flu-related symptoms | do not exhibit the symptom reduction produced in the subjects treated with one of the enumerated Substance P analogs | greater loss in body weight than mock-treated/infected animals | recover from weight-loss quicker than vehicle-treated controls | did not appear to affect pulmonary inflammation
